Experimental data published in patent US8871774B2, “Inhibitors of influenza viruses replication” (priority 2010, dated 2014).
Structures can show the parent of a compound that is named as a salt. Where two headings read alike, the source gives them in different places.

Columns and labels:
[1] = test system: influenza A virus (A/PR/8/34); experiment: cytopathic effect (CPE) assay, MDCK cell protection by ATP detection; format: cell-based; conditions: mean IC50, MDCK cells, A/PR/8/34, 72 hours, 50% cell protection
[2] = test system: Influenza virus, strain A/PR/8/34; experiment: microbe, parasite or virus in culture; format: cell-based
[3] = Influenza A virus, Table 1, read-out: Flu, MDCK IC50
[4] = unidentified influenza virus, PR/8, read-out: bDNA EC50 (uM)
[5] = Table 1, read-out: Flu, MDCK IC50
[6] = Influenza A virus, Table 2, read-out: Flu MDCK IC50
[7] = read-out: bDNA EC50, Table 2, mean EC50, viral RNA level 50% of control wells

Compound	IC50 [1, 3] [µM]	EC50 [2, 4] [µM]	IC50 [1, 6] [µM]	also measured
Cn1cnc(C(=O)N[C@@H]2CCC[C@H](Nc3nc(-c4n[nH]c5ncccc45)ncc3F)C2)c1 [Compound I-24, N-((1R,3S)-3-((5-fluoro-2-(1H-pyrazolo[3,4-b]pyridin-3-yl)pyrimidin-4-yl)amino)cyclohexyl)-1-methyl-1H-imidazole-4-carboxamide]	< 3.3	< 3.3	–	–
C[C@H]1CCN(C(=O)N[C@@H]2CCC[C@H](Nc3nc(-c4n[nH]c5ncccc45)ncc3F)C2)C1 [Compound I-25, (S)—N-((1R,3S)-3-((5-fluoro-2-(1H-pyrazolo[3,4-b]pyridin-3-yl)pyrimidin-4-yl)-amino)cyclohexyl)-3-methylpyrrolidine-1-carboxamide]	< 3.3	< 3.3	–	–
Cn1cncc1C(=O)N[C@@H]1CCC[C@H](Nc2nc(-c3n[nH]c4ncc(F)cc34)ncc2F)C1 [Compound I-27, N-((1R,3S)-3-((5-fluoro-2-(5-fluoro-1H-pyrazolo[3,4-b]pyridin-3-yl)pyrimidin-4-yl)amino)cyclohexyl)-1-methyl-tH-imidazole-5-carboxamide]	–	–	–	IC50 [1, 5]: < 3.3 µM; EC50 ([2]; Table 1, mean EC50, viral RNA level 50% of control wells, read-out: bDNA EC50): < 3.3 µM
O=C(O)[C@H]1C2CCC(CC2)[C@@H]1Nc1nc(-c2n[nH]c3ncc(F)cc23)ncc1F [Compound I-29]	< 3.3	< 3.3	–	–
O=C(O)[C@H]1C2CCC(CC2)[C@@H]1Nc1nc(-c2n[nH]c3ncc(F)cc23)ncc1F [Compound I-31, (2S,3S)-3-(5-fluoro-2-(5-fluoro-1H-pyrazolo[3,4-b]pyridin-3-yl)pyrimidin-4-ylamino)bicyclo[2.2.2]octane-2-carboxylic acid sodium salt]	–	–	–	IC50 [1, 5]: < 3.3 µM; EC50 ([2]; read-out: bDNA EC50, Table 1, mean EC50, viral RNA level 50% of control wells): < 3.3 µM
O=C(O)[C@H]1C2CCC(CC2)[C@@H]1Nc1nc(-c2n[nH]c3ncc(F)cc23)ncc1Cl [Compound I-34, (2S,3S)-3-((5-chloro-2-(5-fluoro-1H-pyrazolo[3,4-b]pyridin-3-yl)pyrimidin-4-yl)amino)bicyclo[2.2.2]octane-2-carboxylic acid]	< 3.3	< 3.3	–	–
O=C(O)[C@@H]1C2CCC(CC2)[C@H]1Nc1nc(-c2n[nH]c3ncc(F)cc23)ncc1Cl [Compound I-35, (2R,3R)-3-((5-chloro-2-(5-fluoro-1H-pyrazolo[3,4-b]pyridin-3-yl)pyrimidin-4-yl)amino)bicyclo[2.2.2]octane-2-carboxylic acid]	< 3.3	< 3.3	–	–
O=C(O)[C@@H]1CCCC2(CCCC2)[C@@H]1Nc1nc(-c2n[nH]c3ncc(F)cc23)ncc1F [Compound I-38]	< 3.3	< 3.3	–	–
O=C(O)[C@H]1CCCC2(CCCC2)[C@H]1Nc1nc(-c2n[nH]c3ncc(F)cc23)ncc1F [Compound I-39, (6S,7S)-6-((5-fluoro-2-(5-fluoro-1H-pyrazolo[3,4-b]pyridin-3-yl)pyrimidin-4-yl)amino)spiro[4.5]decane-7-carboxylic acid]	–	< 3.3	< 3.3	–
O=C(O)[C@@H]1CCCC2(CCCC2)[C@@H]1Nc1nc(-c2n[nH]c3ncc(F)cc23)ncc1F [Compound I-40, (6R,7R)-6-((5-fluoro-2-(5-fluoro-1H-pyrazolo[3,4-b]pyridin-3-yl)-pyrimidin-4-yl)amino)spiro[4.5]decane-7-carboxylic acid]	–	–	< 3.3	EC50 [2, 7]: < 3.3 µM
O=C(N[C@@H]1CCC[C@H](Nc2nc(-c3n[nH]c4ncc(F)cc34)ncc2F)C1)c1ccsc1 [Compound I-41, N-((1R,3S)-3-((5-fluoro-2-(5-fluoro-1H-pyrazolo[3,4-b]pyridin-3-yl)pyrimidin-4-yl)amino)cyclohexyl)thiophene-3-carboxamide]	–	< 3.3	< 3.3	–
O=C(O)[C@H]1C2CCC(CC2)[C@@H]1Nc1nc(-c2n[nH]c3ncc(F)cc23)ncc1F [Compound I-44]	–	–	< 3.3	EC50 [2, 7]: < 3.3 µM
O=C(O)[C@H]1CCCC2(CCCC2)[C@@H]1Nc1nc(-c2n[nH]c3ncc(F)cc23)ncc1F [Compound I-45]	–	< 3.3	< 3.3	–
O=C(O)[C@@H]1CCCC2(CCCC2)[C@H]1Nc1nc(-c2n[nH]c3ncc(F)cc23)ncc1F [Compound I-46]	–	> 3.3	< 3.3	–
O=C(N[C@@H]1CCC[C@H](Nc2nc(-c3n[nH]c4ncc(F)cc34)ncc2F)C1)c1csc(Cl)c1 [Compound I-47, 5-chloro-N-((1R,3S)-3-((5-fluoro-2-(5-fluoro-1H-pyrazolo[3,4-b]pyridin-3-yl)pyrimidin-4-yl)amino)cyclohexyl)thiophene-3-carboxamide]	–	< 3.3	< 3.3	–
O=C(O)C[C@H]1C2CCC(CC2)[C@@H]1Nc1nc(-c2n[nH]c3ncc(F)cc23)ncc1F [Compound I-48, 2-((2S,3S)-3-((5-fluoro-2-(5-fluoro-1H-pyrazolo[3,4-b]pyridin-3-yl)pyrimidin-4-yl)amino)bicyclo[2.2.2]octan-2-yl)acetic acid]	–	< 3.3	< 3.3	–
